Literature values as cited in patent publication US20250064759A1, “CONTAINER COMPRISING A LISDEX[…] SOLUTION” (LABOMED PHARMACEUTICAL COMPANY S.A., priority 2021, published 2025).

Settings: in vivo

Compound: C[C@@H](Cc1ccccc1)NC(=O)[C@@H](N)CCCCN [Lisdexamfetamine, L-lysine-d-amfetamine]
- period over which dexamfetamine is delivered: about 8 hours
